Results from paper PMC11603075 (Communications Biology, 2024).

Experiments:
KDM5C = target: T1, KDM5C (Homo sapiens, UniProt P41229); assay: MALDI–TOF MS time course / specific activity, KDM5C; assay type: biochemical; settings: for specific activity: KDM5C
T1 construct: KDM5C 1– 765; made in house; host or cells: Sf9 cells
T1 sequence (P41229 1-765): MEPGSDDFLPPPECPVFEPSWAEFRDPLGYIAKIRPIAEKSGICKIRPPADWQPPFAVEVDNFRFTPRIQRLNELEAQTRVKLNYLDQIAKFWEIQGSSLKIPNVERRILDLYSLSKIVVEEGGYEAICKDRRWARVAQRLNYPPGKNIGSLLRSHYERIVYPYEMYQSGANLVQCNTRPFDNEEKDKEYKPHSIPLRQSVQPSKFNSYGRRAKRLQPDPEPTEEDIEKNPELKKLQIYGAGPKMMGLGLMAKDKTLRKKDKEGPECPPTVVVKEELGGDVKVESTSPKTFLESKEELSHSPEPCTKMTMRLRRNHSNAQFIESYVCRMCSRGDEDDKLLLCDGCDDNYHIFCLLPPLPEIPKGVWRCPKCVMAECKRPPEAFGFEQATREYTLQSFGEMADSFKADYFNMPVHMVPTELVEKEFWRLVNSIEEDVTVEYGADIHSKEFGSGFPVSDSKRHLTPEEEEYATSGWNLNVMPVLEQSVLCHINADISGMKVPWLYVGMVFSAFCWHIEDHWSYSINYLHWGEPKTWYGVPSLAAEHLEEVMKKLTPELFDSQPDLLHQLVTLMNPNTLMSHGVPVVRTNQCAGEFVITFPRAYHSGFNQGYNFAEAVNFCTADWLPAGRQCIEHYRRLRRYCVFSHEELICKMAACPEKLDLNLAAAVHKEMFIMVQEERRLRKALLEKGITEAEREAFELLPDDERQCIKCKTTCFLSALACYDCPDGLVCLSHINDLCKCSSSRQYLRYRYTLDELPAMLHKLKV
Protocol: MS-based screening assays with peptides and calf thymus histones were as reported; see Supplementary Table 6 for conditions. Time course assays were based on reported procedures. In brief, equal volumes of the enzyme and substrate solutions were combined to initiate the reaction; 10 µL of 2% (v/v) formic acid (HCOOH) in ddH2O or 100% methanol was added to 10 µL of the reaction mixture to quench reactions at different time points. Unless otherwise stated, time course assays were carried out in triplicate. In some cases, LC–MS was used instead of MALDI-TOF MS to avoid a MALDI matrix induced artefact with the hydroxylated product (Supplementary Fig. 16).
Data collected from time course assay(s) were used to plot the % conversion vs time (min) using GraphPad Prism5 version 5.04; the resultant slopes were used to fit a line with linear regression to the first-order region of the reaction. The resultant gradient was then converted from % product formation min^−1 to amount of peptide converted (demethylation and / or hydroxylation) in µM.
Supplementary Figure 4 Activity of KDM5C (black circles) with H2a(1–20)R3me2a is greater than that of KDM4E (white circles). (a) A MALDI–TOF MS time course graph of product formation (%) of KDM4E ( −14 Da/+16 Da) and KDM5C (−14 Da) reaction with H2a(1–20)R3me2a versus time (minutes). ~60% substrate depletion was reached after 105 minutes with KDM4E; ~95% of H2a(1–20)R3me2a was demethylated after 1 05 minut e s wit h K DM5 C. (b ) Comparison of specific activities of KDM4E with H2a(1–20)R3me2a (0.15 […]
bars; +/- SD; n = 3 (independent assays). See Supplementary Table 6 for assay condit ions.
(also on this page, place not known: 105 minutes KDM5C. (b) H2a(1 –20)R3me2a with conditions. specific activity (pmol·min-1·μM-1))
(1 picture or pasted object on this page, not shown here)
[ E nz ym e] [Peptide] [2OG] [Ascorbate] [(NH4)2F e(S O4)2] [TCEP] Buffer pH7.5 Enzyme Cognate substrate (mM) (mM) (mM) (mM) (mM) (mM) [HE PE S]
Supplementary Table 6 Summary of MS assay conditions for substrate screening. These conditions enabled efficient turnover of established substrates. Reactions were carried out at 37 °C unless otherwise st ated. […]

KDM4A1–1064 = assay: MALDI–TOF MS product formation, full length KDM4A1–1064; assay type: biochemical, human; settings: 60 min; for % product formation: 1 µM enzyme, 10 µM peptide
Protocol: Supplementary Figure 5 H2aR3me2a is a substrate of full length KDM4A. (a) Representative MALDI–T OF
MS (60 -minute incubation) (from top to bottom) K DM4A 1–1064, KDM4A1–35 9 and KDM4E1–337 w it h H 2 a( 1–
Representative data are shown from n = 3 (independent assays). Charge state of labelled ions: [MH]+. (b)
Bar graph comparing % product format ion of H2a(1 –20)R3me2a by KDM4A1–10 64, KDM4A1–359 and KDM4E1–
33 7, analysed by MALDI–TOF MS. n = 2/3 (independent assays). Conditions: 1 µM KDM4A1–359 and KDM4E1–
(NH4)2Fe(SO4)2, and 50 mM HEPES (pH 7.5), 1 mM TCEP, 0.02% (v/v) Triton-X . […]

## Ac - SGR [ me 2a ] GKQ GGKAR AKAKT R SSR [H2a(1–20)R3me2a, H2a(1–20)R3me2a without a biotin tag]
KDM5C; 0 min, replicate 1
  product formation (−14 Da): 0%
KDM5C; 0 min, replicate 2
  product formation (−14 Da): 0%
KDM5C; 0 min, replicate 3
  product formation (−14 Da): 0%
KDM5C; 5 min, replicate 1
  product formation (−14 Da): -4.611%
KDM5C; 5 min, replicate 2
  product formation (−14 Da): 1.214%
KDM5C; 5 min, replicate 3
  product formation (−14 Da): 6.766%
KDM5C; 15 min, replicate 1
  product formation (−14 Da): 6.633%
KDM5C; 15 min, replicate 2
  product formation (−14 Da): 6.871%
KDM5C; 15 min, replicate 3
  product formation (−14 Da): 19.5603%
KDM5C; 30 min, replicate 1
  product formation (−14 Da): 38.5829%
KDM5C; 30 min, replicate 3
  product formation (−14 Da): 44.7254%
KDM5C; 45 min, replicate 1
  product formation (−14 Da): 64.1732%
KDM5C; 45 min, replicate 2
  product formation (−14 Da): 64.8428%
KDM5C; 45 min, replicate 3
  product formation (−14 Da): 72.262%
KDM5C; 60 min, replicate 1
  product formation (−14 Da): 81.9609%
KDM5C; 60 min, replicate 2
  product formation (−14 Da): 81.6263%
KDM5C; 60 min, replicate 3
  product formation (−14 Da): 82.8852%
KDM5C; 75 min, replicate 1
  product formation (−14 Da): 85.9119%
KDM5C; 75 min, replicate 2
  product formation (−14 Da): 87.0734%
KDM5C; 75 min, replicate 3
  product formation (−14 Da): 90.3242%
KDM5C; 90 min, replicate 1
  product formation (−14 Da): 92.0497%
KDM5C; 90 min, replicate 2
  product formation (−14 Da): 90.1323%
KDM5C; 90 min, replicate 3
  product formation (−14 Da): 97.0348%
KDM5C; 105 min, replicate 1
  product formation (−14 Da): 95.3885%
KDM5C; 105 min, replicate 2
  product formation (−14 Da): 93.3144%
KDM5C; 105 min, replicate 3
  product formation (−14 Da): 100%
KDM5C; mean of n = 3, SD 0.006
  specific activity: 0.37 pmol min^−1 µM^−1
KDM5C; repeat 1
  specific activity: 0.3803 pmol·min-1·μM-1
KDM5C; repeat 2
  specific activity: 0.3775 pmol·min-1·μM-1
KDM5C; repeat 3
  specific activity: 0.3654 pmol·min-1·μM-1
KDM5C; ratio of specific activities
  RDM activity of KDM5C relative to KDM4E (times): 2.5 times
KDM4A1–1064; replicate 1
  % product formation: 19.2569%
KDM4A1–1064; replicate 2
  % product formation: 31.6947%
KDM4A1–1064; replicate 3
  % product formation: 39.2291%
KDM4A1–1064; MALDI–TOF MS, n = 3
  –14 Da mass shift (demethylation): –14 Da mass shifts
